Consider 70 compounds from PubChem BioAssay AID179 (DTP/NCI, 2004).

The subject of this experiment is CEM cells HIV-1 protection, formazan growth assay. Description: NCI AIDS Antiviral Assay. To be noted: for IC50: measured here: growth of uninfected CEM cells. Summed up: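 CEM (human) cells, HIV-1 infected vs uninfected, 5-point dosing, formazan growth read-out. Retest threshold 50% protection.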

Activity calls are given as the source filed them.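 The calls were made as follows: active = compounds giving half or more protection of infected cells from virus-caused growth loss, again on retest; inactive = the rest.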 Where a SMILES comes first, the peptide text is derived from it. [ ]: non-standard residue; d: D form. The star is where a group is joined. NMeAc5c = CNC1(C(=O)O)CCCC1; Boc = CC(C)(C)OC(=O)*; OBn = c1ccc(CO*)cc1

Take `CCN1C[C@]2(CO)CCC(O)C34[C@@H]5C[C@@H]6C(OC(C)=O)[C@@H]5[C@](OC(C)=O)(C[C@@H]6OC)[C@@H](C(OC)[C@@H]32)[C@H]14` (stereo partly specified): the result was inactive.
In the case of `COc1ccc(C2c3cc4c(cc3OC(NNS(=O)(=O)c3ccc(C)cc3)C2C)OCO4)cc1` (stereo unspecified), the EC50 is more than 200 µM and the 50% inhibitory concentration (IC50) came out at 26.3 µM.
The corresponding values for `CCOC12SC(=Nc3ccc(C)cc3)NN1C(=S)N(C)N=C2C` (stereo unspecified) are more than 200 µM and more than 200 µM.
For `CCOC(=O)[C@@H]1ON2O[C@@H](OC3CCCCC3c3ccccc3)C[C@H]3OC(=O)[C@@H]1C32` (stereo partly specified) the same measures were more than 200 µM and more than 200 µM.
The corresponding values for `CN(C)CCN(C)CCN(C)C.Cc1ccc(S(=O)(=O)[O-])cc1.Cc1ccc(S(=O)(=O)[O-])cc1.[Pd+2]` are more than 200 µM and 10.7 µM.
Turning to `CCOC(=O)/C(=C/c1ccc(N(CCC#N)CCC#N)cc1C)NC(=O)/C=C/c1ccccc1`, the outcome was inactive.
In the case of `O=C1NN=C2CCCCCCC12Cl` (stereo unspecified), the EC50 is more than 1050 µM and the 50% inhibitory concentration (IC50) came out at 158 µM.
For `NC(N)=N/N=C/c1c(Cl)nc2sccn12` the same measures were more than 200 µM and 38 µM.
In the case of `c1ccc(P2(c3ccccc3)=NSN=S=N2)cc1`, the EC50 was more than 200 µM and the IC50 came out at 74.1 µM.
Regarding `c1ccc2c(c1)nn1c3ccc4nonc4c3[n-][n+]21`, the result was inactive.
`COc1ccc(C(C(N)=O)N2CCCC2)cc1` (stereo unspecified): the EC50 was more than 200 µM and the IC50 was more than 200 µM.
For the compound `Cn1c(=O)c2sc3c4sc5c(=O)n(C)c6ccccc6c5c4sc3c2c2ccccc21`, the EC50 is more than 200 µM and the IC50 was more than 200 µM.
Turning to `NNC(=O)C(=O)NN=C(C(Cl)(Cl)CO)C(Cl)(Cl)CO`, the EC50 was more than 20.4 µM and the IC50 was more than 20.4 µM.
Consider `CCCOc1cnc([C@H]2CCC3[C@@H]4CC=C5C[C@@H](OC(C)=O)CC[C@]5(C)C4CC[C@@]32C)s1` (stereo partly specified), for which the EC50 is more than 55 µM and the IC50 was more than 55 µM.
As to `COc1ccc(/C=C/C(=O)c2sc(-n3nc(-c4ccccc4)cc3-c3ccccc3)nc2C)cc1OC`, the EC50 was more than 70.8 µM and the IC50 amounted to 38 µM.
For `O=C(O)c1ccc(S(=O)(=O)c2ccc(C(=O)O)c(C(=O)O)c2)cc1C(=O)O` the same measures were more than 200 µM and 191 µM.
For `C[C@@H]1C(=O)CC2(O)[C@@]13C[C@@H](OC(=O)[C@@H]3O)[C@@H](C)[C@@]21COC1=O` (stereo partly specified), the EC50 is more than 813 µM and the half-maximal inhibitory concentration (IC50) was more than 813 µM.
Consider `Cc1cc2oc(=O)cc(C)c2c(=O)o1`, for which the EC50 was more than 200 µM and the IC50 is more than 200 µM.
Regarding `Cn1cnc([N+](=O)[O-])c1Sc1nc2ccc([N+](=O)[O-])cc2[nH]1`, the EC50 is more than 81.3 µM and the IC50 was determined as 7.76 µM.
For `O=C1NC(Cc2ccccc2)C(=O)N2CCCC12` (stereo unspecified) the same measures were more than 1020 µM and more than 1020 µM.
Regarding `CC(=O)OC(CC1(C)C(C)CCC23COC(=O)C2=CCCC31)c1ccoc1` (stereo unspecified), the EC50 was more than 69.2 µM and the IC50 is 30.2 µM.
The corresponding values for `CCCn1c(=O)c2ccccc2[n+]2c(-c3ccc([N+](=O)[O-])cc3)csc12` are more than 200 µM and more than 100 µM.
`CCOC(=O)C(=O)/C(=C/n1c(=S)[nH]c2cc(C)ccc21)C(=O)OCC`: the EC50 was more than 200 µM and the IC50 was more than 200 µM.
On to `C=CCC(C(=O)NC(N)=O)c1ccccc1` (stereo unspecified), for which the EC50 is more than 832 µM and the IC50 came to 617 µM.
In the case of `O=C(O)C1CC1`, the outcome was inactive.
As for `CC1CCC(=O)C(C(=O)CC2CC(=O)NC(=O)C2)C1` (stereo unspecified), the EC50 is more than 200 µM and the half-inhibitory concentration (IC50) was more than 200 µM.
Consider `O=C1/C(=C\c2cccc(Oc3ccccc3)c2)SC(c2ccccc2)N1c1ccc(Cl)cc1` (stereo unspecified), for which the EC50 was more than 20 µM and the 50% inhibitory concentration (IC50) was determined as 1.29 µM.
For `CCOC(=O)Cn1c(=O)n(C)c(=O)c2c1ncn2Cc1ccccc1` the same measures were more than 724 µM and 427 µM.
For `CC(=O)NC(CCCCNC(=O)N(C)N=O)C(=O)NCc1ccccc1` (stereo unspecified) the same measures were more than 692 µM and 141 µM.
The corresponding values for `CCCCn1c(N)c(N=O)c(=O)n(CCCC)c1=O` are more than 200 µM and 89.1 µM.
As for `O=C1CC(c2ccccc2)=Nc2ccccc2N1`, the EC50 is more than 151 µM and the IC50 was more than 151 µM.
As to `Cc1ccc2c(c1)-c1c(C#N)c(N)nc(-c3ccc(Cl)cc3)c1CCS2(=O)=O`, the EC50 is more than 200 µM and the half-inhibitory concentration (IC50) was found to be 3.16 µM.
In the case of `NC(C(F)(F)F)(C(F)(F)F)P(=O)(Cc1ccccc1)Cc1ccccc1`, the EC50 was more than 200 µM and the IC50 stood at 145 µM.
Take `COP(=O)(CCC1OCCO1)OC`: the EC50 is more than 200 µM and the IC50 was more than 200 µM.
In the case of `CCC1(c2ccccc2)OCC(=O)NC1=O` (stereo unspecified), the EC50 is more than 200 µM and the IC50 was more than 200 µM.
Regarding `O=c1[nH]nc(Cc2ccccc2)n1/N=C\c1ccccc1`, the EC50 is more than 200 µM and the IC50 is more than 200 µM.
As for `CCCC(=O)Nc1cc([N+](=O)[O-])c([N+](=O)[O-])cc1OC`, the EC50 is more than 200 µM and the 50% inhibitory concentration (IC50) is 10.7 µM.
For `CCOC(=O)CCC(NC(=O)c1ccc(Oc2nc3c(N)cc(C(F)(F)F)cc3nc2-c2ccccc2)cc1)C(=O)OCC` (stereo unspecified) the same measures were more than 200 µM and 112 µM.
The corresponding values for `O=C1CCCCC/C1=C\c1ccc(F)cc1` are more than 200 µM and 61.7 µM.
As to `O=[N+]([O-])c1ccc(-c2noc(-c3ccc(Cl)cc3)c2C2=NCCN2)cc1`, the EC50 was more than 14.1 µM and the half-inhibitory concentration (IC50) was more than 14.1 µM.
As to `CSc1c(C#N)c(O)n(-c2ccc(C)cc2)c(=O)c1C#N`, the concentration for a half-maximal effect (EC50) is more than 115 µM and the 50% inhibitory concentration (IC50) was determined as 102 µM.
For `NC(=O)N/N=C/c1ccc(Cl)cc1` the same measures were more than 132 µM and more than 132 µM.
For `O=C(O)CN1C=C(C(=O)c2cc3ccccc3n2S(=O)(=O)c2ccccc2)CCC1` the same measures were more than 200 µM and 89.1 µM.
`CC(=O)CC1=C(OC(C)C)C2(OCCO2)C1O` (stereo unspecified): the EC50 was more than 200 µM and the half-inhibitory concentration (IC50) was more than 200 µM.
Turning to `CC(Oc1ccc(OCC2CCCCC2)cc1)C(=O)NCc1ccco1` (stereo unspecified), the EC50 was more than 28.2 µM and the half-maximal inhibitory concentration (IC50) was more than 28.2 µM.
Take `O=C(OCC12CC3CC(CC(C3)C1)C2)c1ccc(NCc2cc(O)ccc2O)cc1`: the EC50 is more than 2 µM and the half-maximal inhibitory concentration (IC50) came out at 1.78 µM.
With `CCCCCCCCCc1cc(=O)c2c(O)cc(O)cc2o1`, the result was inactive.
In the case of `N#Cc1ncn(-c2ccccc2)c1N`, the EC50 was more than 200 µM and the half-maximal inhibitory concentration (IC50) was more than 200 µM.
In the case of `CC(=O)OCC(OC(C)=O)C(OC(C)=O)C(OC(C)=O)C(=O)CNn1c(-c2ccccc2)nc2ccc(Br)cc2c1=O` (stereo unspecified), the result was inactive.
Turning to `O=C(OC[C@H]1O[C@@H](OC(=O)c2cc(O)c(O)c(O)c2)[C@H](OC(=O)c2cc(O)c(O)c(O)c2)[C@@H](OC(=O)c2cc(O)c(O)c(O)c2)[C@@H]1OC(=O)c1cc(O)c(O)c(O)c1)c1cc(O)c(O)c(O)c1`, the EC50 is more than 132 µM and the half-maximal inhibitory concentration (IC50) amounted to 21.4 µM.
For `Cn1c(=O)c2c(nc3n(C)c(=O)c4ccccc4n23)n(C)c1=O` the same measures were more than 200 µM and 2.51 µM.
For `O=c1c2[nH]c3cccc(Cl)c3c2cnn1-c1ccc(F)cc1` the same measures were more than 6.03 µM and more than 6.03 µM.
The corresponding values for `CN(O)C(=O)CCCC(=O)NCC(C)(C)CNC(=O)CCCC(=O)N(C)O` are more than 200 µM and more than 200 µM.
On to `CC(C)(C)C(=O)OC12/C(=N/O)CCCCCC1c1ccccc12` (stereo unspecified), for which the EC50 was more than 200 µM and the IC50 is 37.2 µM.
For `Nc1ccc2c(c1)CN1C(=O)c3ccccc3C1=N2` the same measures were more than 15.1 µM and 2.95 µM.
In the case of `COc1cc([N+](=O)[O-])ccc1NC(=O)C(F)(F)F`, the EC50 is more than 200 µM and the half-maximal inhibitory concentration (IC50) was 57.5 µM.
For `CC(C)(C)OC(=O)NC(Cc1ccc(OCc2ccccc2)cn1)C(=O)O` (stereo unspecified) the same measures were more than 200 µM and more than 200 µM.
For `Oc1ccc(-c2c3ccccc3c(-c3ccc(OCCBr)cc3)c3ccccc23)cc1` the same measures were more than 100 µM and more than 100 µM.
For `CC(NCc1c(O)ccc2c(-c3ccccc3)cc(=O)oc12)C(=O)O` (stereo unspecified) the same measures were more than 200 µM and more than 200 µM.
For the compound `CC[C@]12C=CCN3CCC4(c5cc([C@]6(C(=O)OC)C[C@H]7CN(CCc8c6[nH]c6ccccc86)C[C@@H]6CCCC[C@H]76)c(OC)cc5N(C)C4[C@@](O)(C(=O)OC)C1OC(C)=O)[C@@H]32` (stereo partly specified), the EC50 is more than 240 µM and the IC50 amounted to 1.32 µM.
For `Cc1cc(C)c2c(=N)c3ccccc3n(CCCCCCO)c2n1` the same measures were more than 200 µM and 1.38 µM.
For `C[N+]12C=CC=C1C(N1CCCC1)c1sc(-c3ccc(Cl)cc3)cc12` (stereo unspecified) the same measures were more than 200 µM and 12.9 µM.
The corresponding values for `NS(=O)(=O)C1CCCCC1C(=O)NNC(=O)C(=O)Nc1nc(=S)[nH][nH]1` (stereo unspecified) are more than 646 µM and more than 646 µM.
Consider `CC(=O)/C(=C/c1ccc([N+](=O)[O-])cc1)C(=O)c1ccccc1`, for which the EC50 was more than 87.1 µM and the IC50 is 16.6 µM.
Take `S=C1SCC2CCCN12` (stereo unspecified): the result was inactive.
Same read-out and setting: the result for `CCOC(=O)C1C(c2ccccc2)=C(c2ccccc2)C(c2ccccc2)=C1c1ccccc1` reads “inactive”; that for `Cc1cccc(N2C(=O)/C(=C/c3ccc(N(CCC#N)CCC#N)cc3C)N=C2c2cc([N+](=O)[O-])ccc2Cl)c1`, “inactive”.
For the compound `CN(C(=O)C(Cc1ccccc1)NC(=O)OC(C)(C)C)C1(C(=O)NC(Cc2ccccc2)C(=O)OCc2ccccc2)CCCC1` (stereo not drawn) (Boc-Phe-[NMeAc5c]-Phe-OBn; configuration not given here), the EC50 was more than 200 µM and the half-maximal inhibitory concentration (IC50) was 11 µM.
In the case of `CC12CCC(=O)N1c1ccccc1N2` (stereo unspecified), the EC50 was more than 501 µM and the IC50 is more than 501 µM.
Consider `CC(=O)Oc1cccc2c1C(=O)CCCC2`, for which the EC50 is more than 200 µM and the IC50 is more than 200 µM.
